In PubChem BioAssay AID2060606 (Molecular Pharmacology Branch, DTP, NCI, 2025):

Test system: 922993-354-T-J3-PDC complex spheroids, viability, % test/control
Assay: Anticancer human tumor 922993-354-T-J3-PDC patient-derived endometrial carcinoma cell line growth inhibition [CLK]
Settings: for IC50: curve of first compound; for viability, T/C: stronger effect = lower value
Summary of the method: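 Multi-cell-type spheroids combined patient-derived tumor cells with HUVEC endothelial cells and human mesenchymal stem cells. Paired agents were dosed in half-log steps down from about clinical Cmax, or from 10 microM where Cmax was unknown.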

[1] = second compound 0.0316 µM, first compound 0.0316 µM
[2] = second compound 0.0316 µM, first compound 0.1 µM
[3] = second compound 0.0316 µM, first compound 0.316 µM
[4] = second compound 0.0316 µM, first compound 1 µM
[5] = second compound 0.0316 µM, first compound 3.16 µM
[6] = second compound 0.0316 µM, first compound 10 µM
[7] = second compound 0.1 µM, first compound 0.0316 µM
[8] = second compound 0.1 µM, first compound 0.1 µM
[9] = second compound 0.1 µM, first compound 0.316 µM
[10] = second compound 0.1 µM, first compound 1 µM
[11] = second compound 0.1 µM, first compound 3.16 µM
[12] = second compound 0.1 µM, first compound 10 µM
[13] = second compound 0.316 µM, first compound 0.0316 µM
[14] = second compound 0.316 µM, first compound 0.1 µM
[15] = second compound 0.316 µM, first compound 0.316 µM
[16] = second compound 0.316 µM, first compound 1 µM
[17] = second compound 0.316 µM, first compound 3.16 µM
[18] = second compound 0.316 µM, first compound 10 µM
[19] = second compound 1 µM, first compound 0.0316 µM
[20] = second compound 1 µM, first compound 0.1 µM
[21] = second compound 1 µM, first compound 0.316 µM
[22] = second compound 1 µM, first compound 1 µM
[23] = second compound 1 µM, first compound 3.16 µM
[24] = second compound 1 µM, first compound 10 µM
[25] = second compound 3.16 µM, first compound 0.0316 µM
[26] = second compound 3.16 µM, first compound 0.1 µM
[27] = second compound 3.16 µM, first compound 0.316 µM
[28] = second compound 3.16 µM, first compound 1 µM
[29] = second compound 3.16 µM, first compound 3.16 µM
[30] = second compound 3.16 µM, first compound 10 µM
[31] = second compound 10 µM, first compound 0.0316 µM
[32] = second compound 10 µM, first compound 0.1 µM
[33] = second compound 10 µM, first compound 0.316 µM
[34] = second compound 10 µM, first compound 1 µM
[35] = second compound 10 µM, first compound 3.16 µM
[36] = second compound 10 µM, first compound 10 µM
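Further: spheroids exposed to the agents for 7 days before readout.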

## C#Cc1c(F)ccc2cc(O)cc(-c3ncc4c(N5CC6CCC(C5)N6)nc(OCC56CCCN5CC(F)C6)nc4c3F)c12 (centres undefined) + CNC(=O)c1ccc(Nc2nc(OC3CCCC3)c3c(-c4ccc5nc(C)oc5c4)c[nH]c3n2)c(OC)c1
Second compound 0.0316 µM
  IC50: > 10000 nM
Second compound 0.1 µM
  IC50: > 10000 nM
Second compound 0.316 µM
  IC50: > 10000 nM
Second compound 1 µM
  IC50: < 31.6 nM
Second compound 3.16 µM
  IC50: < 31.6 nM
Second compound 10 µM
  IC50: < 31.6 nM
[1]
  viability, T/C: 115%
[2]
  viability, T/C: 98.5%
[3]
  viability, T/C: 103%
[4]
  viability, T/C: 101%
[5]
  viability, T/C: 115%
[6]
  viability, T/C: 94.1%
[7]
  viability, T/C: 94.9%
[8]
  viability, T/C: 95.2%
[9]
  viability, T/C: 116%
[10]
  viability, T/C: 107%
[11]
  viability, T/C: 109%
[12]
  viability, T/C: 97.5%
[13]
  viability, T/C: 61.4%
[14]
  viability, T/C: 64.5%
[15]
  viability, T/C: 63%
[16]
  viability, T/C: 61.8%
[17]
  viability, T/C: 57.1%
[18]
  viability, T/C: 45.6%
[19]
  viability, T/C: 39.5%
[20]
  viability, T/C: 40.6%
[21]
  viability, T/C: 35.5%
[22]
  viability, T/C: 37%
[23]
  viability, T/C: 40.8%
[24]
  viability, T/C: 35.8%
[25]
  viability, T/C: 29.7%
[26]
  viability, T/C: 29.4%
[27]
  viability, T/C: 29.8%
[28]
  viability, T/C: 30.4%
[29]
  viability, T/C: 34.3%
[30]
  viability, T/C: 36.2%
[31]
  viability, T/C: 30.9%
[32]
  viability, T/C: 29.4%
[33]
  viability, T/C: 30.5%
[34]
  viability, T/C: 33.2%
[35]
  viability, T/C: 33.1%
[36]
  viability, T/C: 31.5%

## COc1ccc([C@@H](O)c2cc(-c3ncnc4cc(N5CCOCC5)ccc34)c(F)cc2Cl)nn1 + CN1CCN(c2cc(C(=O)Nc3cc4cc(-c5cnn(C)c5)ccc4cn3)ccn2)CC1
Second compound 0.0316 µM
  IC50: > 10000 nM
Second compound 0.1 µM
  IC50: > 10000 nM
Second compound 0.316 µM
  IC50: < 31.6 nM
Second compound 1 µM
  IC50: < 31.6 nM
Second compound 3.16 µM
  IC50: < 31.6 nM
Second compound 10 µM
  IC50: < 31.6 nM
[1]
  viability, T/C: 112%
[2]
  viability, T/C: 131%
[3]
  viability, T/C: 123%
[4]
  viability, T/C: 122%
[5]
  viability, T/C: 112%
[6]
  viability, T/C: 85.4%
[7]
  viability, T/C: 87.8%
[8]
  viability, T/C: 87.7%
[9]
  viability, T/C: 85.6%
[10]
  viability, T/C: 91.5%
[11]
  viability, T/C: 90.2%
[12]
  viability, T/C: 76.1%
[13]
  viability, T/C: 35.9%
[14]
  viability, T/C: 33.1%
[15]
  viability, T/C: 30.8%
[16]
  viability, T/C: 25.4%
[17]
  viability, T/C: 24.9%
[18]
  viability, T/C: 24.7%
[19]
  viability, T/C: 0.11%
[20]
  viability, T/C: 0.13%
[21]
  viability, T/C: 0.13%
[22]
  viability, T/C: 0.11%
[23]
  viability, T/C: 0.22%
[24]
  viability, T/C: 1.37%
[25]
  viability, T/C: 0.13%
[26]
  viability, T/C: 0.14%
[27]
  viability, T/C: 1.21%
[28]
  viability, T/C: 1.06%
[29]
  viability, T/C: 2.69%
[30]
  viability, T/C: 1.48%
[31]
  viability, T/C: 0.14%
[32]
  viability, T/C: 2.05%
[33]
  viability, T/C: 1.47%
[34]
  viability, T/C: 0.25%
[35]
  viability, T/C: 1.52%
[36]
  viability, T/C: 2.52%
